Measured values published in US6565864B2, “Skin care product containing retinoids and phytoestrogens in a dual compartment package” (Unilever Home & Personal Care USA, a division of Conopco, …, priority 2000, dated 2003).
Where two headings read alike, the source gives them in different places.

Experiments:
[1] = tested on: CRABP-2; test: CRABP-2 protein expression in human adult fibroblasts (dot blot immunostaining) as a measure of retinoid activity; format: cell-based; conditions: for CRABP-2 % as Control: control = 100%; for CRABP-2 production: human adult fibroblasts; for Synergy of phytoestrogen with retinoids (in words): soluble form, CRABP-2 in fibroblasts
Procedure: Human adult fibroblasts obtained from sun-protected inner arm of 25-30 year […] volunteer were used in this. Cells were grown in 1:1 DMEM/Hams F12 media containing 10% FBS, maintained at 37° C. in a 5% CO2 atmosphere under normal atmosphere oxygen tension. Third passage adult fibroblasts were grown in DMEM media with 10% FBS in 12-well plates at a seeding density of 2500 cells/ml/well. The cells at 80% confluence were rinsed in serum free and phenol red free (PRF) DMEM media twice. Pre-treatment with phyto-compounds for 4 hours was conducted and then dosed with retinoids and was incubated for 48 hours. After the incubation, the wells were washed twice with 1×PBS and the cell monolayer was harvested in 100 μl cell lysis buffer (contains 1×PBS, 1% Triton X, 0.5% sodium deoxycholate, 0.1% SDS containing protease inhibitor (10 mg/ml PMSF in isopropanol, 10 μl/ml). The suspension was spun at 14000 rpm for 10 minutes, the supernatant collected and an aliquot of this supernatant was used for protein quantification. Protein concentration was determined using Pierce protein kit. The remainder of 100 μl supernatant (cell lysate) was denatured in a mixture of 40 μl sample buffer (NOVEX) and 0.5% Beta mercaptoethanol (BME) and by boiling the sample for 5 minutes.
(b) Detection of Cellular Retinoic Acid Binding Protein 2 (CRABP-2)
These proteins act in regulating the intracellular concentration of retinoids by acting as both storage or shuttle proteins in retinoid metabolism. High or low levels of retinoids cause cell damage, including cell death, therefore regulation of constant levels of retinoids and its binding proteins are very critical for cell survival. The levels of this protein are regulated by the amount of retinoic acid within the cells. Higher cellular levels of retinoids increase the expression of CRABP-2. Therefore, the amount of this protein in the cells, is a measure of the retinoid activity of the cells. Skin cells contain high levels of CRABP-2 both in the epidermis and the dermis. CRABP-2 response to retinoid administration in fibroblasts in vitro is used as a reproducible measure of retinoid bioactivity that predict human skin responses. […] Increase in CRABP-2 is also associated with increased epidermal differentiation, and dermal retinoid action. Therefore, in these studies CRABP-2 expression of fibroblasts was used as a measure of retinoid activity leading to increased epidermal differentiation (skin conditioning and dry skin benefit) and dermal collagen and extracellular matrix synthesis (anti-aging, anti-wrinkling benefits).
To measure the levels of CRABP-2 in the fibroblasts, the equal amount of protein of cell supernatant were loaded onto nitrocellulose blots in a dot blot apparatus as instructed by the manufacturer, and immunostaining was carried out using monoclonal antibodies to CRABP-2 according to standard procedures. The CRABP-2 protein band was visualized in the Dot Blots using the chemiluminescence system obtained from Santa Cruz Biotechnology (SantaCruz, Calif.). The bands in the film were quantitated by dens tometric scanning, the data from the triplicate samples were calculated as % of control and expressed in the following tables as % increase over control (with control as 100%) +/−SD triplicates.

[2] = Stability of retinol in aqueous ethanol in the presence of phytoestrogenic flavonoids (OD 360 nm); format: physicochemical; conditions: for Retinol degraded: 0.001 %
Procedure: Retinol was dissolved as a 10% solution in aqueous ethanol (1:1 water:ethanol). This solution was diluted to 0.001%, or approximately 30 μM). This solution gave an OD of about 0.35 absorption unit at 360 nm in a 96 well plate spectrophotometer.
Aqueous ethanolic stock solutions of the genistein, daidzein were prepared as 0.1%, 0.01% or 0.001%. To 200 μl of 0.001% retinol solution in a 96 well plate was added 20 μl of the flavonoid (i.e. 1-10 dilution) giving a final flavonoid concentration of 0.01, 0.001 and 0.0001%. The plates were mixed and an initial OD reading was taken at 360 nm. The plates were incubated at room temperature in the dark for up to 2 days and subsequent readings were taken at 8, 24 and 48 hours. The OD readings at these time points were normalized to the 0 time point reading. The retinol stability was expressed as % of retinol (OD reading) at 0 time.
The following tables show the effect of genistein and daidzein on destabilizing retinol. The experiment was done as described in methods section. The OD readings from duplicate measurements were averaged and given here.

[3] = 100 nM retinoid alone, 48 hours

In the case of `CCCCC/C=C\C/C=C\CCCCCCCC(=O)OC/C=C(C)/C=C/C=C(C)/C=C/C1=C(C)CCCC1(C)C` [Retinyl Linoleate], the “CRABP-2 % as Control” value ([1]; 100 nM retinoid alone) is reported as 181 +/− 110% and the CRABP-2 production [1, 3] is reported as 0.52 +/− 0.3.
With `O=c1c(-c2ccc(O)cc2)coc2cc(O)ccc12` [Daidzein] the “CRABP-2 % as Control” value ([1]; 1 μM phytoestrogen alone) was 513 +/− 227%, the CRABP-2 production ([1]; 1 μM phytoestrogen alone) was 1.49 +/− 0.66 and the “Synergy of phytoestrogen with retinoids (in words)” value [1] was “stimulate retinoid activity in a synergistic manner”. For the same compound, the “Effect of the flavonoid on retinol stability (in words)” value [2] was “marked increases in the instability of retinol”.
In the case of `CCCCCCCCCCCCCCCC(=O)OC/C=C(C)/C=C/C=C(C)/C=C/C1=C(C)CCCC1(C)C` [Retinyl Palmitate], the “CRABP-2 % as Control” value ([1]; 100 nM retinoid alone) is reported as 434 +/− 177% and the CRABP-2 production [1, 3] is reported as 1.26 +/− 0.51.
For `CC1=C(/C=C/C(C)=C/C=C/C(C)=C/C(=O)O)C(C)(C)CCC1` [Retinoic acid, reference compound], the “CRABP-2 % as Control” value ([1]; 1 nM retinoid alone) was 335 +/− 162%, the CRABP-2 production ([1]; 1 nM retinoid alone, 48 hours) was 0.97 +/− 0.47 and the “CRABP-2 % as Control” value ([1]; 10 nM retinoid alone) was 428 +/− 101%. For the same compound, the CRABP-2 production ([1]; 10 nM retinoid alone, 48 hours) was 1.24 +/− 0.29.
In the case of `CC(=O)OC/C=C(C)/C=C/C=C(C)/C=C/C1=C(C)CCCC1(C)C` [Retinyl Acetate], the “CRABP-2 % as Control” value ([1]; 100 nM retinoid alone) is reported as 209 +/− 118% and the CRABP-2 production [1, 3] is reported as 0.60 +/− 0.32.
For `CC1=C(/C=C/C(C)=C/C=C/C(C)=C/CO)C(C)(C)CCC1` [Retinol], the Retinol degraded ([2]; 8 h) was 8%, the Retinol degraded ([2]; 24 h) was 14% and the Retinol degraded ([2]; 48 h) was 19%.
For `O=c1c(-c2ccc(O)cc2)coc2cc(O)cc(O)c12` [Genistein], the “CRABP-2 stimulation (in words)” value ([1]; 1 μM alone, delivered in DMSO: ethanol) was “stimulated CRABP-2 significantly”, the “CRABP-2 % as Control” value ([1]; 1 μM phytoestrogen alone) was 655 +/− 247% and the CRABP-2 production ([1]; 1 μM phytoestrogen alone) was 1.9 +/− 0.71. For the same compound, the “Synergy of phytoestrogen with retinoids (in words)” value [1] was “stimulate retinoid activity in a synergistic manner” and the “Effect of the flavonoid on retinol stability (in words)” value ([2]; 0.0001-0.01% flavonoid with 0.001% retinol) was “marked increases in the instability of retinol”.
